According to PubChem BioAssay (NCI):
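Protocol summary: plate cells (96-well), add compound at 5 concentrations, incubate 48 h, interpolate endpoints linearly. TGI denotes the concentration required for complete inhibition of growth.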

What follows are compounds tested on NCI-H226 lung (assay: NCI anticancer screen, dose series, 48 h).

Structure (SMILES) | TGI [µM]
CC1=CC(C/C(C)=C/COc2ccc3ccc(=O)oc3c2)OC1=O (centres undefined) | > 100
CN1[C@@H]2C[C@@H](OC(=O)[C@H](CO)c3ccccc3)C[C@H]1[C@@H]1O[C@@H]12 | > 100
N#Cc1c(Cl)cc(Cl)n2c1nc1ccccc12 | 33.8
CC1=C(O)C(=O)C=C2C1=CC=C1[C@@]2(C)CC[C@@]2(C)[C@@H]3C[C@](C)(C(=O)O)CC[C@]3(C)CC[C@]12C | 0.366
COc1nc2nccnc2c(=O)n1C | > 10
CCOC(=O)NC(Nc1cccc(C(F)(F)F)c1)(C(F)(F)F)C(F)(F)F | > 100
COc1ccc2cc(C(C)C(=O)N3CCOC3=O)ccc2c1 (centres undefined) | > 100

Each compound was assayed on NCI-H23 lung (assay: NCI anticancer screen, dose series, 48 h).

Structure (SMILES) | TGI [µM]
CC1=CC(C/C(C)=C/COc2ccc3ccc(=O)oc3c2)OC1=O (centres undefined) | > 100
CN1[C@@H]2C[C@@H](OC(=O)[C@H](CO)c3ccccc3)C[C@H]1[C@@H]1O[C@@H]12 | > 100
N#Cc1c(Cl)cc(Cl)n2c1nc1ccccc12 | 39.9
CC1=C(O)C(=O)C=C2C1=CC=C1[C@@]2(C)CC[C@@]2(C)[C@@H]3C[C@](C)(C(=O)O)CC[C@]3(C)CC[C@]12C | 0.181
COc1nc2nccnc2c(=O)n1C | > 10
CCOC(=O)NC(Nc1cccc(C(F)(F)F)c1)(C(F)(F)F)C(F)(F)F | > 100
COc1ccc2cc(C(C)C(=O)N3CCOC3=O)ccc2c1 (centres undefined) | > 100

Each compound was assayed on NCI-H460 lung (assay: NCI anticancer screen, dose series, 48 h).

Structure (SMILES) | TGI [µM]
CC1=CC(C/C(C)=C/COc2ccc3ccc(=O)oc3c2)OC1=O (centres undefined) | > 100
N#Cc1c(Cl)cc(Cl)n2c1nc1ccccc12 | 23.7
CC1=C(O)C(=O)C=C2C1=CC=C1[C@@]2(C)CC[C@@]2(C)[C@@H]3C[C@](C)(C(=O)O)CC[C@]3(C)CC[C@]12C | 0.384
COc1nc2nccnc2c(=O)n1C | > 10
CCOC(=O)NC(Nc1cccc(C(F)(F)F)c1)(C(F)(F)F)C(F)(F)F | > 100
COc1ccc2cc(C(C)C(=O)N3CCOC3=O)ccc2c1 (centres undefined) | > 100

The compounds below were run on NCI-H522 lung (assay: NCI anticancer screen, dose series, 48 h).

Structure (SMILES) | TGI [µM]
CC1=CC(C/C(C)=C/COc2ccc3ccc(=O)oc3c2)OC1=O (centres undefined) | > 100
CN1[C@@H]2C[C@@H](OC(=O)[C@H](CO)c3ccccc3)C[C@H]1[C@@H]1O[C@@H]12 | > 100
N#Cc1c(Cl)cc(Cl)n2c1nc1ccccc12 | 3.61
CC1=C(O)C(=O)C=C2C1=CC=C1[C@@]2(C)CC[C@@]2(C)[C@@H]3C[C@](C)(C(=O)O)CC[C@]3(C)CC[C@]12C | 0.0389
COc1nc2nccnc2c(=O)n1C | > 10
CCOC(=O)NC(Nc1cccc(C(F)(F)F)c1)(C(F)(F)F)C(F)(F)F | > 100
COc1ccc2cc(C(C)C(=O)N3CCOC3=O)ccc2c1 (centres undefined) | > 100

Each compound was assayed on NCI/ADR-RES ovarian (assay: NCI anticancer screen, dose series, 48 h).

Structure (SMILES) | TGI [µM]
CC1=CC(C/C(C)=C/COc2ccc3ccc(=O)oc3c2)OC1=O (centres undefined) | > 100
CN1[C@@H]2C[C@@H](OC(=O)[C@H](CO)c3ccccc3)C[C@H]1[C@@H]1O[C@@H]12 | > 100
N#Cc1c(Cl)cc(Cl)n2c1nc1ccccc12 | 40.5
CC1=C(O)C(=O)C=C2C1=CC=C1[C@@]2(C)CC[C@@]2(C)[C@@H]3C[C@](C)(C(=O)O)CC[C@]3(C)CC[C@]12C | 0.107
COc1nc2nccnc2c(=O)n1C | > 10
CCOC(=O)NC(Nc1cccc(C(F)(F)F)c1)(C(F)(F)F)C(F)(F)F | > 100
COc1ccc2cc(C(C)C(=O)N3CCOC3=O)ccc2c1 (centres undefined) | > 100

The compounds below were run on OVCAR-3 ovarian (assay: NCI anticancer screen, dose series, 48 h).

Structure (SMILES) | TGI [µM]
CC1=CC(C/C(C)=C/COc2ccc3ccc(=O)oc3c2)OC1=O (centres undefined) | > 100
CN1[C@@H]2C[C@@H](OC(=O)[C@H](CO)c3ccccc3)C[C@H]1[C@@H]1O[C@@H]12 | > 100
N#Cc1c(Cl)cc(Cl)n2c1nc1ccccc12 | 15.6
CC1=C(O)C(=O)C=C2C1=CC=C1[C@@]2(C)CC[C@@]2(C)[C@@H]3C[C@](C)(C(=O)O)CC[C@]3(C)CC[C@]12C | 0.0941
COc1nc2nccnc2c(=O)n1C | > 10
CCOC(=O)NC(Nc1cccc(C(F)(F)F)c1)(C(F)(F)F)C(F)(F)F | > 100
COc1ccc2cc(C(C)C(=O)N3CCOC3=O)ccc2c1 (centres undefined) | > 100

Each compound was assayed on OVCAR-4 ovarian (assay: NCI anticancer screen, dose series, 48 h).

Structure (SMILES) | TGI [µM]
CC1=CC(C/C(C)=C/COc2ccc3ccc(=O)oc3c2)OC1=O (centres undefined) | > 100
CN1[C@@H]2C[C@@H](OC(=O)[C@H](CO)c3ccccc3)C[C@H]1[C@@H]1O[C@@H]12 | > 100
N#Cc1c(Cl)cc(Cl)n2c1nc1ccccc12 | 34
CC1=C(O)C(=O)C=C2C1=CC=C1[C@@]2(C)CC[C@@]2(C)[C@@H]3C[C@](C)(C(=O)O)CC[C@]3(C)CC[C@]12C | 0.174
COc1nc2nccnc2c(=O)n1C | > 10
COc1ccc2cc(C(C)C(=O)N3CCOC3=O)ccc2c1 (centres undefined) | > 100

Each compound was assayed on OVCAR-5 ovarian (assay: NCI anticancer screen, dose series, 48 h).

Structure (SMILES) | TGI [µM]
CC1=CC(C/C(C)=C/COc2ccc3ccc(=O)oc3c2)OC1=O (centres undefined) | > 100
CN1[C@@H]2C[C@@H](OC(=O)[C@H](CO)c3ccccc3)C[C@H]1[C@@H]1O[C@@H]12 | > 100
N#Cc1c(Cl)cc(Cl)n2c1nc1ccccc12 | 41.9
CC1=C(O)C(=O)C=C2C1=CC=C1[C@@]2(C)CC[C@@]2(C)[C@@H]3C[C@](C)(C(=O)O)CC[C@]3(C)CC[C@]12C | 0.332
COc1nc2nccnc2c(=O)n1C | > 10
CCOC(=O)NC(Nc1cccc(C(F)(F)F)c1)(C(F)(F)F)C(F)(F)F | > 100
COc1ccc2cc(C(C)C(=O)N3CCOC3=O)ccc2c1 (centres undefined) | > 100

These compounds were tested on OVCAR-8 ovarian (assay: NCI anticancer screen, dose series, 48 h).

Structure (SMILES) | TGI [µM]
CC1=CC(C/C(C)=C/COc2ccc3ccc(=O)oc3c2)OC1=O (centres undefined) | > 100
CN1[C@@H]2C[C@@H](OC(=O)[C@H](CO)c3ccccc3)C[C@H]1[C@@H]1O[C@@H]12 | > 100
N#Cc1c(Cl)cc(Cl)n2c1nc1ccccc12 | 35
CC1=C(O)C(=O)C=C2C1=CC=C1[C@@]2(C)CC[C@@]2(C)[C@@H]3C[C@](C)(C(=O)O)CC[C@]3(C)CC[C@]12C | 0.0712
COc1nc2nccnc2c(=O)n1C | > 10
CCOC(=O)NC(Nc1cccc(C(F)(F)F)c1)(C(F)(F)F)C(F)(F)F | > 100
COc1ccc2cc(C(C)C(=O)N3CCOC3=O)ccc2c1 (centres undefined) | > 100

What follows are compounds tested on PC-3 prostate (assay: NCI anticancer screen, dose series, 48 h).

Structure (SMILES) | TGI [µM]
CC1=CC(C/C(C)=C/COc2ccc3ccc(=O)oc3c2)OC1=O (centres undefined) | > 100
CN1[C@@H]2C[C@@H](OC(=O)[C@H](CO)c3ccccc3)C[C@H]1[C@@H]1O[C@@H]12 | > 100
N#Cc1c(Cl)cc(Cl)n2c1nc1ccccc12 | 29.3
CC1=C(O)C(=O)C=C2C1=CC=C1[C@@]2(C)CC[C@@]2(C)[C@@H]3C[C@](C)(C(=O)O)CC[C@]3(C)CC[C@]12C | 0.185
COc1nc2nccnc2c(=O)n1C | > 10
CCOC(=O)NC(Nc1cccc(C(F)(F)F)c1)(C(F)(F)F)C(F)(F)F | > 100
COc1ccc2cc(C(C)C(=O)N3CCOC3=O)ccc2c1 (centres undefined) | > 100

The compounds below were run on RPMI-8226 leukemia (assay: NCI anticancer screen, dose series, 48 h).

Structure (SMILES) | TGI [µM]
CN1[C@@H]2C[C@@H](OC(=O)[C@H](CO)c3ccccc3)C[C@H]1[C@@H]1O[C@@H]12 | > 100
N#Cc1c(Cl)cc(Cl)n2c1nc1ccccc12 | 58.9
CC1=C(O)C(=O)C=C2C1=CC=C1[C@@]2(C)CC[C@@]2(C)[C@@H]3C[C@](C)(C(=O)O)CC[C@]3(C)CC[C@]12C | 0.0585
COc1nc2nccnc2c(=O)n1C | > 10
CCOC(=O)NC(Nc1cccc(C(F)(F)F)c1)(C(F)(F)F)C(F)(F)F | > 100
COc1ccc2cc(C(C)C(=O)N3CCOC3=O)ccc2c1 (centres undefined) | > 100

What follows are compounds tested on RXF 393 renal (assay: NCI anticancer screen, dose series, 48 h).

Structure (SMILES) | TGI [µM]
CC1=CC(C/C(C)=C/COc2ccc3ccc(=O)oc3c2)OC1=O (centres undefined) | > 100
CN1[C@@H]2C[C@@H](OC(=O)[C@H](CO)c3ccccc3)C[C@H]1[C@@H]1O[C@@H]12 | > 100
N#Cc1c(Cl)cc(Cl)n2c1nc1ccccc12 | 26.7
CC1=C(O)C(=O)C=C2C1=CC=C1[C@@]2(C)CC[C@@]2(C)[C@@H]3C[C@](C)(C(=O)O)CC[C@]3(C)CC[C@]12C | 0.024
COc1nc2nccnc2c(=O)n1C | > 10
CCOC(=O)NC(Nc1cccc(C(F)(F)F)c1)(C(F)(F)F)C(F)(F)F | > 100
COc1ccc2cc(C(C)C(=O)N3CCOC3=O)ccc2c1 (centres undefined) | > 100

Each compound was assayed on SF-268 CNS (assay: NCI anticancer screen, dose series, 48 h).

Structure (SMILES) | TGI [µM]
CC1=CC(C/C(C)=C/COc2ccc3ccc(=O)oc3c2)OC1=O (centres undefined) | > 100
N#Cc1c(Cl)cc(Cl)n2c1nc1ccccc12 | 40.1
CC1=C(O)C(=O)C=C2C1=CC=C1[C@@]2(C)CC[C@@]2(C)[C@@H]3C[C@](C)(C(=O)O)CC[C@]3(C)CC[C@]12C | 0.106
COc1nc2nccnc2c(=O)n1C | > 10
CCOC(=O)NC(Nc1cccc(C(F)(F)F)c1)(C(F)(F)F)C(F)(F)F | > 100
COc1ccc2cc(C(C)C(=O)N3CCOC3=O)ccc2c1 (centres undefined) | > 100

Each compound was assayed on SF-295 CNS (assay: NCI anticancer screen, dose series, 48 h).

Structure (SMILES) | TGI [µM]
CC1=CC(C/C(C)=C/COc2ccc3ccc(=O)oc3c2)OC1=O (centres undefined) | > 100
N#Cc1c(Cl)cc(Cl)n2c1nc1ccccc12 | 32.4
CC1=C(O)C(=O)C=C2C1=CC=C1[C@@]2(C)CC[C@@]2(C)[C@@H]3C[C@](C)(C(=O)O)CC[C@]3(C)CC[C@]12C | 0.54
COc1nc2nccnc2c(=O)n1C | > 10
CCOC(=O)NC(Nc1cccc(C(F)(F)F)c1)(C(F)(F)F)C(F)(F)F | > 100
COc1ccc2cc(C(C)C(=O)N3CCOC3=O)ccc2c1 (centres undefined) | > 100

These compounds were tested on SF-539 CNS (assay: NCI anticancer screen, dose series, 48 h).

Structure (SMILES) | TGI [µM]
CC1=CC(C/C(C)=C/COc2ccc3ccc(=O)oc3c2)OC1=O (centres undefined) | > 100
N#Cc1c(Cl)cc(Cl)n2c1nc1ccccc12 | 12
CC1=C(O)C(=O)C=C2C1=CC=C1[C@@]2(C)CC[C@@]2(C)[C@@H]3C[C@](C)(C(=O)O)CC[C@]3(C)CC[C@]12C | 0.331
COc1nc2nccnc2c(=O)n1C | > 10
CCOC(=O)NC(Nc1cccc(C(F)(F)F)c1)(C(F)(F)F)C(F)(F)F | > 100
COc1ccc2cc(C(C)C(=O)N3CCOC3=O)ccc2c1 (centres undefined) | > 100
